Holding throughout (experiment): growth of human tumour cells (NCI), 48 h
Experiment [1] relates to CCRF-CEM leukemia.
Experiment [2] has as its system NCI-H522 lung.
Experiment [3] relates to SNB-19 CNS.
Experiment [4] concerns LOX IMVI melanoma.
Experiment [5] deals with NCI-H460 lung.
The test system of experiment [6] is SK-MEL-28 melanoma.
Experiment [7] concerns NCI-H23 lung.
The subject of experiment [8] is UACC-257 melanoma.
Experiment [9] has as its system OVCAR-5 ovarian.
Experiment [10] deals with RXF 393 renal.

The text below walks through data of PubChem BioAssay (NCI).

Structures are written as SMILES.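 Step 1: Grow cells in 96-well plates. Step 2: Expose to compound for 48 hours at 5 concentrations. Step 3: Interpolate endpoints linearly; if unreached, use highest concentration. Abbreviation: GI50, concentration required for 50% inhibition of growth. TGI denotes the concentration required for complete inhibition of growth.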 A value given as a limit tells only on which side of the number the result lay.

As to `COc1cc2c(cc1OC)C(Cl)C(c1ccc(Cl)cc1)=C2Cl` (centres undefined), the TGI was 30.6 µM in experiment [1]; 32.5 µM in experiment [2]; above 100 µM in [3]; 25.5 µM in experiment [4]; 29.8 µM in [5]; 41.4 µM in [6]. This compound showed a TGI in [7] of 41.1 µM.

Turning to `O=C(c1cc(Br)ccc1O)c1cc(Br)ccc1O`, the TGI in [1] was found to be 44.4 µM; in [2] it was 33 µM; in [8], 29.1 µM; in experiment [3] it was 32.3 µM; in experiment [4], 36.8 µM; in experiment [9], 33.3 µM. In addition, the TGI came to 32.1 µM in [5], 27.9 µM in experiment [10], 31.1 µM in experiment [6] and 35.4 µM in experiment [7].

With `COc1ccc(CNc2nc(NCc3ccc(OC)cc3)nc(NC(C)C)n2)cc1`, the TGI is 10.6 µM in experiment [2]; 39.8 µM in experiment [8]; above 100 µM in experiment [3]; 30.9 µM in [4]; 81.9 µM in [9]; 17 µM in experiment [5]. The TGI was 38.5 µM in [10], above 100 µM in [6] and 30.8 µM in [7].

Turning to `c1ccc2c[n+](CCCCCCCCCC[n+]3ccc4ccccc4c3)ccc2c1`, the TGI in experiment [1], in experiment [2], in experiment [8], in experiment [3], in experiment [4] and in experiment [9] was above 10 µM each time. Moreover, the TGI in [5], in experiment [10], in experiment [6] and in experiment [7] was above 10 µM each time.

For the compound `O=C(CSCC(=O)N/N=C/c1cccc(OCc2ccccc2)c1)N/N=C/c1cccc(OCc2ccccc2)c1`, the TGI in [1] was above 100 µM; in [2], above 100 µM; in experiment [8], above 85.1 µM; in experiment [3], above 100 µM; in [4], above 100 µM; in experiment [9], above 100 µM. For the same compound, the TGI in experiment [5], in experiment [10], in experiment [6] and in experiment [7] was above 100 µM throughout.

Regarding `Cc1c2ccnc(-c3ccccc3)c2cc2c1[nH]c1ccccc12`, the TGI in experiment [1] is 10.6 µM; in experiment [2], 27.7 µM; in [8] it was 6.26 µM; in [3], 17.9 µM; in experiment [4] it was 17.6 µM; in experiment [9] it was 13.8 µM. The TGI in experiment [5] stood at 7.36 µM; in [10] it was 6.22 µM; in experiment [6] it was 19.5 µM; in experiment [7], 19.9 µM.

With `C[C@@H]1CC[C@H]2C(COC/C=C/COCC3=C(C(F)(F)F)O[C@@H]4O[C@@]5(C)CC[C@H]6[C@H](C)CC[C@@H]3[C@@]46OO5)=C(C(F)(F)F)O[C@@H]3O[C@@]4(C)CC[C@@H]1[C@]32OO4`, the GI50 in experiment [1] is 0.0148 µM; in experiment [2], 0.327 µM; in [8] it was 0.0538 µM; in experiment [3], 0.542 µM; in experiment [9] it was 0.0175 µM; in [5] it was 0.0226 µM. In addition, the GI50 in experiment [10] was 1.64 µM; in experiment [6], 63.9 µM; in [7] it was below 0.0178 µM. Besides, the TGI in [1] was above 38.4 µM; in [2] it was above 100 µM; in [8], 11.8 µM; in experiment [3], above 100 µM; in experiment [9], above 100 µM; in experiment [5], above 100 µM. The TGI in experiment [10] is above 20.7 µM; in [6], above 100 µM; in experiment [7], 12.3 µM.

In the case of `C[n+]1cccc(/C=C/c2ccc3cccc(O)c3n2)c1`, the TGI in experiment [1] was above 100 µM; in [2], 92.6 µM; in experiment [8], above 100 µM; in [3], above 100 µM; in experiment [4], above 100 µM; in experiment [9] it was above 100 µM. In addition, the TGI in [5], in [10], in experiment [6] and in experiment [7] was above 100 µM throughout.

On to `CCOC(=O)N1c2ccccc2S(=O)(=O)c2ccccc21`, for which the TGI in [1], in experiment [2], in [8], in experiment [3], in experiment [4] and in [9] was above 100 µM throughout. The TGI in experiment [5], in [10], in experiment [6] and in experiment [7] was above 100 µM each time.

For the compound `Cc1ccc(C)c(/C(=N\N=C(N)N)C2CC2)c1`, the TGI in experiment [2] is above 100 µM; in experiment [8], above 100 µM; in [3], above 100 µM; in experiment [4], above 100 µM; in [9] it was above 100 µM; in experiment [5], 47.9 µM. The results for the TGI in experiment [10], in experiment [6] and in experiment [7] were above 100 µM, above 100 µM and 66.7 µM, respectively.

Consider `CCOC(=O)c1c2c(c(O)c3ccccc3c(O)n(-c3ccc(C)cc3)c1C)C(=O)C=CC2=O`, for which the TGI in experiment [1] was 78.9 µM; in experiment [2], 41.7 µM; in [8] it was 29.3 µM; in experiment [3] it was above 100 µM; in experiment [4], 38.8 µM; in experiment [9], above 100 µM. Also, the values for the TGI in experiment [5], in experiment [10] and in experiment [7] were 84.6 µM, 55.7 µM and 52 µM, respectively.

As for `Cc1ncc(CO)c(CN)c1O`, the TGI in experiment [1], in experiment [2], in experiment [8], in experiment [3], in [4] and in experiment [9] was above 100 µM each time. In addition, the TGI in experiment [5], in experiment [10], in experiment [6] and in experiment [7] was above 100 µM in each case.

With `CN(C)CCNC(=O)c1cccc2nc3c4ccccc4c4ccccc4c3nc12`, the TGI in experiment [1] was 3.03 µM; in experiment [2] it was 23.4 µM; in [8], 10.6 µM; in experiment [3], 8.6 µM; in experiment [4], 3.13 µM; in [9], 14.2 µM. Moreover, the TGI in [5] turned out to be 2.35 µM; in experiment [10] it was 4.65 µM; in experiment [6] it was 3.27 µM; in experiment [7] it was 3.41 µM.

Turning to `N=C(N)c1ccc(-c2ccc(-c3ccc(Cl)cn3)s2)cc1`, the GI50 in experiment [8] was 1.8 µM; in [9] it was 1.58 µM; in experiment [6] it was 1.67 µM. Also, the TGI worked out at 3.62 µM in experiment [8], 3.04 µM in experiment [9] and 3.07 µM in experiment [6].

Consider `O=C(O)c1ccccn1`, for which the TGI in [1], in experiment [8], in experiment [3], in [9], in experiment [5] and in [10] was above 100 µM throughout. For the same compound, the TGI in experiment [6] and in [7] was above 100 µM throughout.

`O=C(CC1(O)C(=O)Nc2ccc(Br)cc21)c1ccc(C(=O)NCC2CCC3(CC2)OOC2(CCCCC2)OO3)cc1` (centres undefined): the GI50 in [2] is 0.336 µM; in experiment [8], 10.6 µM; in experiment [3], 10.5 µM; in experiment [4] it was 1.95 µM; in [9], 13.8 µM; in experiment [5], 3.37 µM. Also, the GI50 was 5.46 µM in experiment [10], 11.1 µM in experiment [6] and 6.43 µM in experiment [7]. Also, the TGI in experiment [2] came out at 1.37 µM; in [8] it was 29 µM; in [3], 38.7 µM; in [4], 29 µM; in experiment [9], 63.8 µM; in experiment [5], 30.2 µM. The TGI in [10] was determined as 26.7 µM; in experiment [6] it was 46 µM; in experiment [7], 32 µM.

For `CN(C)c1ccc(C2CC(=O)C(C#N)=C(c3ccccc3)NN2C)cc1` (centres undefined), the TGI was 28.5 µM in [2]; above 100 µM in experiment [8]; above 100 µM in experiment [3]; above 100 µM in experiment [4]; above 100 µM in experiment [9]; 36.9 µM in experiment [5]. The TGI in experiment [10], in [6] and in [7] was above 100 µM throughout.

Take `CC(C)(C)C1CCC2(CC1)CCN(CCCN1CCOCC1)CC2`: the TGI in [1] was above 100 µM; in [2], above 71.3 µM; in experiment [8], 31.1 µM; in experiment [3], above 100 µM; in [4] it was above 52.3 µM; in experiment [9], above 100 µM. Besides, the TGI is above 100 µM in experiment [5], above 82.3 µM in [10], 33.2 µM in [6] and above 100 µM in [7].

On to `CC(C)CNc1nc(N)[nH]c(=O)c1NC=O`, for which the TGI in experiment [1], in [2], in experiment [8], in experiment [3], in experiment [4] and in experiment [9] was above 100 µM in each case. Further, the TGI in experiment [5], in [10], in experiment [6] and in experiment [7] was above 100 µM throughout.

Regarding `COc1cnc2c(c1)C(=O)c1c-2n(CCCN2CCNCC2)c(=O)c2cc(Cl)ccc12`, the GI50 in [8] was 2.19 µM; in [9], 1.74 µM; in experiment [5], 0.0449 µM. The TGI was found to be 4.82 µM in [8], 3.31 µM in experiment [9] and 1.29 µM in [5].

Consider `CN(C)[C@@H]1C(=O)C(C(=O)NCNCCCC(=O)O)=C(O)[C@@]2(O)C(=O)C3=C(O)c4c(O)cccc4[C@@](C)(O)[C@H]3C[C@@H]12`, for which the TGI in experiment [1], in experiment [2], in experiment [8], in experiment [3], in experiment [4] and in experiment [9] was above 100 µM throughout. Also, the TGI in [5], in experiment [10], in experiment [6] and in experiment [7] was above 100 µM each time.

As for `COc1cc2ccc1-c1cc(ccc1O)CC1c3cc4c(cc3CCN1C)Oc1c(OC)cc3c(c1O4)C(C2)N(C)CC3` (centres undefined), the TGI is 5.18 µM in [1]; 3.2 µM in experiment [2]; 3.23 µM in experiment [8]; 4.28 µM in [3]; 3.75 µM in experiment [4]; 8.86 µM in [9]. Also, the TGI in [5] came out at 3.23 µM; in [10], 3.24 µM; in experiment [6], 2.89 µM; in experiment [7], 3.9 µM.

For the compound `Oc1cc(O)cc(/C=C/c2ccc(O)c(O)c2)c1`, the TGI in experiment [1] was 24.3 µM; in [2], 7.17 µM; in experiment [8], above 100 µM; in experiment [3], above 88.4 µM; in experiment [4], above 41.7 µM; in experiment [9], 20.7 µM. Moreover, the TGI in [5] is 60.5 µM; in [10], 45.7 µM; in [6], above 100 µM; in experiment [7], 40.2 µM.

`NCS(=O)(=O)O`: the TGI in experiment [1], in experiment [2], in [8], in experiment [3], in [4] and in experiment [9] was above 100 µM each time. For the same compound, the TGI in [5], in experiment [10], in experiment [6] and in experiment [7] was above 100 µM in each case.
